# Experimental data reported in the OligoGym collection.
# HELM strings list units from the 5' end as sugar, base in round brackets, then linkage (d deoxyribose, r ribose, m 2'-O-methyl, p phosphodiester). Strings are as the collection lists them; they lack the last nucleoside at the 3' end of the tested compound. [moe] = 2'-O-(2-methoxyethyl) (MOE); [sp] = phosphorothioate linkage; [m5C] = 5-methylcytosine
# Biological target: C9ORF72
# Test: mouse, dose not given
# Conditions: ASO
row,Substance,3 h FOB score [score 0-7]
1,RNA1{[moe](T)[sp].[moe](G)p.[moe](G)p.[moe](T)p.[moe](T)p.[moe](A)[sp].d(A)[sp].d(T)[sp].d([m5C])[sp].d(T)[sp].d(T)[sp].d(T)[sp].d(A)[sp].d(T)[sp].[moe]([m5C])p.[moe](A)[sp].[moe](G)}$$$$ (last 3' nucleoside missing),6.25
2,RNA1{[moe](T)[sp].[moe](A)[sp].[moe]([m5C])[sp].[moe](A)[sp].[moe](G)[sp].d(G)[sp].d([m5C])[sp].d(T)[sp].d(G)[sp].d([m5C])[sp].d(G)[sp].d(G)[sp].d(T)[sp].d(T)[sp].d(G)[sp].[moe](T)[sp].[moe](T)[sp].[moe](T)[sp].[moe]([m5C])}$$$$ (last 3' nucleoside missing),7
3,RNA1{[moe]([m5C])[sp].[moe]([m5C])p.[moe]([m5C])p.[moe](T)[sp].d(A)[sp].d(G)[sp].d([m5C])[sp].d(G)[sp].d([m5C])[sp].d(G)[sp].d([m5C])[sp].d(G)[sp].[moe](A)p.[moe]([m5C])p.[moe](T)p.[moe]([m5C])[sp].[moe]([m5C])}$$$$ (last 3' nucleoside missing),1
4,RNA1{[moe](G)[sp].[moe](G)p.[moe]([m5C])p.[moe](T)[sp].d(G)[sp].d([m5C])[sp].d(G)[sp].d(G)[sp].d(T)[sp].d(T)[sp].d(G)[sp].d(T)[sp].[moe](T)p.[moe](T)p.[moe]([m5C])p.[moe]([m5C])[sp].[moe]([m5C])}$$$$ (last 3' nucleoside missing),6
5,RNA1{[moe](G)[sp].[moe](G)p.[moe]([m5C])p.[moe]([m5C])p.d([m5C])[sp].d([m5C])[sp].d(T)[sp].d(A)[sp].d(G)[sp].d([m5C])[sp].d(G)[sp].d([m5C])[sp].d(G)[sp].d([m5C])[sp].[moe](G)p.[moe](A)p.[moe]([m5C])p.[moe](T)[sp].[moe]([m5C])}$$$$ (last 3' nucleoside missing),1.5
6,RNA1{[moe](G)[sp].[moe](G)p.[moe](T)p.[moe](T)[sp].d(A)[sp].d(A)[sp].d(T)[sp].d([m5C])[sp].d(T)[sp].d(T)[sp].d(T)[sp].d(A)[sp].[moe](T)p.[moe]([m5C])p.[moe](A)p.[moe](G)[sp].[moe](G)}$$$$ (last 3' nucleoside missing),1
7,RNA1{[moe]([m5C])[sp].[moe](G)p.[moe](G)p.[moe]([m5C])p.[moe]([m5C])p.d([m5C])[sp].d([m5C])[sp].d(T)[sp].d(A)[sp].d(G)[sp].d([m5C])[sp].d(G)[sp].d([m5C])[sp].d(G)[sp].[moe]([m5C])p.[moe](G)p.[moe](A)[sp].[moe]([m5C])}$$$$ (last 3' nucleoside missing),4
8,RNA1{[moe](A)[sp].[moe](A)[sp].[moe](T)[sp].[moe]([m5C])[sp].[moe](T)[sp].d(T)[sp].d(T)[sp].d(A)[sp].d(T)[sp].d([m5C])[sp].d(A)[sp].d(G)[sp].d(G)[sp].d(T)[sp].d([m5C])[sp].[moe](T)[sp].[moe](T)[sp].[moe](T)[sp].[moe](T)}$$$$ (last 3' nucleoside missing),6.5
9,RNA1{[moe](G)[sp].[moe]([m5C])p.[moe]([m5C])p.[moe](T)p.[moe](T)p.[moe](A)p.d([m5C])[sp].d(T)[sp].d([m5C])[sp].d(T)[sp].d(A)[sp].d(G)[sp].d(G)[sp].d(A)[sp].d([m5C])[sp].d([m5C])[sp].[moe](A)p.[moe](A)[sp].[moe](G)}$$$$ (last 3' nucleoside missing),2.25
10,RNA1{[moe]([m5C])[sp].[moe]([m5C])p.[moe]([m5C])p.[moe](T)p.[moe](A)p.[moe](G)[sp].d([m5C])[sp].d(G)[sp].d([m5C])[sp].d(G)[sp].d([m5C])[sp].d(G)[sp].d(A)[sp].d([m5C])[sp].[moe](T)p.[moe]([m5C])[sp].[moe]([m5C])}$$$$ (last 3' nucleoside missing),3
11,RNA1{[moe]([m5C])[sp].[moe](T)p.[moe](G)p.[moe]([m5C])p.d(G)[sp].d(A)[sp].d(T)[sp].d([m5C])[sp].d([m5C])[sp].d([m5C])[sp].d([m5C])[sp].d(A)[sp].d(T)[sp].d(T)[sp].[moe]([m5C])p.[moe]([m5C])p.[moe](A)p.[moe](G)[sp].[moe](T)}$$$$ (last 3' nucleoside missing),1.75
12,RNA1{[moe]([m5C])[sp].[moe](T)p.[moe](G)p.[moe]([m5C])p.[moe](G)p.[moe](A)p.[moe](T)p.d([m5C])[sp].d([m5C])[sp].d([m5C])[sp].d([m5C])[sp].d(A)[sp].d(T)[sp].d(T)[sp].d([m5C])[sp].d([m5C])[sp].d(A)[sp].[moe](G)[sp].[moe](T)}$$$$ (last 3' nucleoside missing),0.25
13,RNA1{[moe]([m5C])[sp].[moe](T)p.[moe](G)p.d([m5C])[sp].d(G)[sp].d(A)[sp].d(T)[sp].d([m5C])[sp].d([m5C])[sp].d([m5C])[sp].d([m5C])[sp].d(A)[sp].d(T)[sp].[moe](T)p.[moe]([m5C])p.[moe]([m5C])p.[moe](A)p.[moe](G)[sp].[moe](T)}$$$$ (last 3' nucleoside missing),1.75
14,RNA1{[moe](G)[sp].[moe](G)p.[moe](T)p.[moe](T)p.d(A)[sp].d(A)[sp].d(T)[sp].d([m5C])[sp].d(T)[sp].d(T)[sp].d(T)[sp].d(A)[sp].d(T)[sp].d([m5C])[sp].[moe](A)p.[moe](G)p.[moe](G)p.[moe](T)[sp].[moe]([m5C])}$$$$ (last 3' nucleoside missing),0
15,RNA1{[moe]([m5C])[sp].[moe](T)p.[moe](G)p.[moe]([m5C])p.[moe](G)p.[moe](A)p.d(T)[sp].d([m5C])[sp].d([m5C])[sp].d([m5C])[sp].d([m5C])[sp].d(A)[sp].d(T)[sp].d(T)[sp].d([m5C])[sp].d([m5C])[sp].[moe](A)p.[moe](G)[sp].[moe](T)}$$$$ (last 3' nucleoside missing),0.25
16,RNA1{[moe]([m5C])[sp].[moe]([m5C])p.[moe](G)p.[moe](G)p.d([m5C])[sp].d([m5C])[sp].d([m5C])[sp].d([m5C])[sp].d(T)[sp].d(A)[sp].d(G)[sp].d([m5C])[sp].d(G)[sp].d([m5C])[sp].[moe](G)p.[moe]([m5C])p.[moe](G)p.[moe](A)[sp].[moe]([m5C])}$$$$ (last 3' nucleoside missing),4.25
17,RNA1{[moe](G)[sp].[moe](G)p.[moe](T)p.[moe](T)p.[moe](A)p.[moe](A)p.[moe](T)p.d([m5C])[sp].d(T)[sp].d(T)[sp].d(T)[sp].d(A)[sp].d(T)[sp].d([m5C])[sp].d(A)[sp].d(G)[sp].d(G)[sp].[moe](T)[sp].[moe]([m5C])}$$$$ (last 3' nucleoside missing),5.75
18,RNA1{[moe](A)[sp].[moe](G)p.[moe](G)p.[moe]([m5C])p.[moe](T)p.d(G)[sp].d([m5C])[sp].d(G)[sp].d(G)[sp].d(T)[sp].d(T)[sp].d(G)[sp].d(T)[sp].d(T)[sp].[moe](T)p.[moe]([m5C])p.[moe]([m5C])[sp].[moe]([m5C])}$$$$ (last 3' nucleoside missing),6.25
19,RNA1{[moe](G)[sp].[moe]([m5C])p.[moe](T)p.[moe](G)[sp].d([m5C])[sp].d(G)[sp].d(G)[sp].d(T)[sp].d(T)[sp].d(G)[sp].d(T)[sp].d(T)[sp].[moe](T)p.[moe]([m5C])p.[moe]([m5C])p.[moe]([m5C])[sp].[moe](T)}$$$$ (last 3' nucleoside missing),5
20,RNA1{[moe](T)[sp].[moe](G)p.[moe](G)p.d(T)[sp].d(T)[sp].d(A)[sp].d(A)[sp].d(T)[sp].d([m5C])[sp].d(T)[sp].d(T)[sp].d(T)[sp].d(A)[sp].[moe](T)p.[moe]([m5C])p.[moe](A)p.[moe](G)p.[moe](G)[sp].[moe](T)}$$$$ (last 3' nucleoside missing),0.25
21,RNA1{[moe]([m5C])[sp].[moe]([m5C])p.[moe](G)p.[moe](G)p.[moe]([m5C])p.[moe]([m5C])p.[moe]([m5C])p.d([m5C])[sp].d(T)[sp].d(A)[sp].d(G)[sp].d([m5C])[sp].d(G)[sp].d([m5C])[sp].d(G)[sp].d([m5C])[sp].d(G)[sp].[moe](A)[sp].[moe]([m5C])}$$$$ (last 3' nucleoside missing),2
22,RNA1{[moe](G)[sp].[moe](T)p.[moe](T)p.[moe](A)p.[moe](A)p.[moe](T)[sp].d([m5C])[sp].d(T)[sp].d(T)[sp].d(T)[sp].d(A)[sp].d(T)[sp].d([m5C])[sp].d(A)[sp].[moe](G)p.[moe](G)[sp].[moe](T)}$$$$ (last 3' nucleoside missing),3
23,RNA1{[moe](G)[sp].[moe]([m5C])p.[moe]([m5C])p.[moe]([m5C])[sp].d([m5C])[sp].d(T)[sp].d(A)[sp].d(G)[sp].d([m5C])[sp].d(G)[sp].d([m5C])[sp].d(G)[sp].[moe]([m5C])p.[moe](G)p.[moe](A)p.[moe]([m5C])[sp].[moe](T)}$$$$ (last 3' nucleoside missing),1.5
24,RNA1{[moe](G)[sp].[moe]([m5C])p.[moe]([m5C])p.[moe]([m5C])p.[moe]([m5C])p.[moe](T)[sp].d(A)[sp].d(G)[sp].d([m5C])[sp].d(G)[sp].d([m5C])[sp].d(G)[sp].d([m5C])[sp].d(G)[sp].[moe](A)p.[moe]([m5C])[sp].[moe](T)}$$$$ (last 3' nucleoside missing),1
25,RNA1{[moe]([m5C])[sp].[moe]([m5C])p.[moe]([m5C])p.[moe](T)p.d(A)[sp].d(G)[sp].d([m5C])[sp].d(G)[sp].d([m5C])[sp].d(G)[sp].d([m5C])[sp].d(G)[sp].d(A)[sp].d([m5C])[sp].[moe](T)p.[moe]([m5C])p.[moe]([m5C])p.[moe](T)[sp].[moe](G)}$$$$ (last 3' nucleoside missing),1.75
26,RNA1{[moe](G)[sp].[moe](G)p.[moe]([m5C])p.[moe]([m5C])[sp].d([m5C])[sp].d([m5C])[sp].d(T)[sp].d(A)[sp].d(G)[sp].d([m5C])[sp].d(G)[sp].d([m5C])[sp].[moe](G)p.[moe]([m5C])p.[moe](G)p.[moe](A)[sp].[moe]([m5C])}$$$$ (last 3' nucleoside missing),2.5
